This experiment has as its target PARP7 (Homo sapiens (Human), UniProt Q7Z3E1). Kind of experiment: In vitro enzymology experiment of PARP7 (enzymatic inhibition). Type of experiment: biochemical. As for the experimental part:
II. In Vitro Enzymology Experiment of PARP2, 3, 5A, 5B, 7, 12, and 15
1. Preparation of 384-well histone-coated plate: 25 μL of histone solution was added to each well, and the plate was incubated overnight at 4° C.
2. Preparation of PBST buffer, blocking buffer, and assay buffer
3. The 384-well histone-coated plate was washed three times with PBST buffer. The plate was blocked by 50 μL of blocking buffer for 1 hour at room temperature. The plate was then washed three times with PBST buffer.
2000× compound was prepared in a 96-well source plate. 50 nL of the compound was transferred from the source plate to a 96-well intermediate plate, and 39.95 μL of assay buffer was added to each well. The plate was shaken well and centrifuged at 1000 rpm for 1 minute.
5 μL of compound DMSO solution was transferred to each well.
An enzyme mixture was incubated at 25° C. for 10 minutes.
10 μL of the enzyme mixture was added, and incubated with the compound at room temperature for 10 minutes.
10 μL of assay buffer was added to the negative control well of the assay plate.
The plate was then washed three times with PBST buffer.
25 μL of Stre-HRP was added.
The plate was incubated at room temperature for 1 hour and washed three times with PBS buffer.
25 μL of QuantaRed Enhancer mix was added. The plate was incubated for 10 minutes.
2.5 μL of QuantaRed Stop Solution was added to terminate the peroxidase reaction, and the plate was shaken for 10 to 30 seconds.
7. Paradigm was used to read the plate immediately to detect the readings at Ex550/Em620.
Using equation (1) to fit the data in Excel to obtain inhibition values
Using equation (2) to fit the data in XL-Fit to obtain IC50 values
Y is the percentage of inhibition, and X is the compound concentration.

Results on 20 compounds are retold here after patent publication US20240351997A1, “NOVEL PARP7 INHIBITOR AND USE THEREOF” (SHANGHAI QILU PHARMACEUTICAL RESEARCH AND DEVELOPMENT …, priority 2021, published 2024).

A word on the pIC50: it is the negative decadic logarithm of the IC50, by convention in mol/L. High values mean a small IC50, low ones a large IC50.

pIC50: −log10 of the molar value.

PARP7, sequence (Q7Z3E1 whole entry): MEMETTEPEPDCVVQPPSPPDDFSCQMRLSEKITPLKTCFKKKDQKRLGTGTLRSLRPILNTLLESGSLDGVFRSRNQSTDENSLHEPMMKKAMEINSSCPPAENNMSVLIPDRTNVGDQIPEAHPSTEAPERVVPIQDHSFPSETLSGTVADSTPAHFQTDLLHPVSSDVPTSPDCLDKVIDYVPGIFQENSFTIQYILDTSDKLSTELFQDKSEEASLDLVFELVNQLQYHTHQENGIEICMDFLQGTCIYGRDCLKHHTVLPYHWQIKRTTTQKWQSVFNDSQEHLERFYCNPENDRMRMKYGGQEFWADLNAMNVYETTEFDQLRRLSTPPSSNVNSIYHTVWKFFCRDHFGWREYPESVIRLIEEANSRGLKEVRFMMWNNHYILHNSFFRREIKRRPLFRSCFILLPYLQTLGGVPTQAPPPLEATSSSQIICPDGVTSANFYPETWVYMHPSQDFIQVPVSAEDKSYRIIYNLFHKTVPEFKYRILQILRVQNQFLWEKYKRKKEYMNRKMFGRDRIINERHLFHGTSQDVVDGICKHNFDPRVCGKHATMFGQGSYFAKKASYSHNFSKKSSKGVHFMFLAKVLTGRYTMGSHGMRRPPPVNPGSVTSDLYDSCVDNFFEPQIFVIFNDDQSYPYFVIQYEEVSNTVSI

Consider `C[C@@H]1CN(c2ncc(C3CC3)cn2)C[C@@H](C)N1C(=O)O[C@@H](C)Cc1c[nH]c(=O)c(C(F)(F)F)c1` [Example 175, (S)-1-(6-Oxo-5-(trifluoromethyl)-1,6-dihydropyridin-3-yl)propan-2-yl (2R,6R)-4-(5-cyclopropylpyrimidin-2-yl)-2,6-dimethylpiperazine-1-carboxylate], for which the pIC50 was 9.12.

In turn, `C[C@@H](Cc1c[nH]c(=O)c(C(F)(F)F)c1)OC(=O)N1CCN(c2ncc(C(F)F)cn2)CC1` [Example 50, (S)-1-(6-Oxo-5-(trifluoromethyl)-1,6-dihydropyridin-3-yl)propan-2-yl 4-(5-(difluoromethyl)pyrimidin-2-yl)piperazine-1-carboxylate] showed a pIC50 of 9.28.

In the case of `Cc1cc(OC(=O)N2CCN(c3ncc(C(F)(F)F)cn3)CC2)cc(-c2c[nH]c(=O)c(C(F)(F)F)c2)c1` [Example 138, 3-Methyl-5-(6-oxo-5-(trifluoromethyl)-1,6-dihydropyridin-3-yl)phenyl 4-(5-(trifluoromethyl)pyrimidin-2-yl)piperazine-1-carboxylate], the pIC50 was 8.74.

Regarding `C[C@@H]1CN(c2ncc(C3CC3)cn2)C[C@H](C)N1C(=O)O[C@@H](C)Cc1c[nH]c(=O)c(C(F)(F)F)c1` [Example 174, (S)-1-(6-Oxo-5-(trifluoromethyl)-1,6-dihydropyridin-3-yl)propan-2-yl (2R,6S)-4-(5-cyclopropylpyrimidin-2-yl)-2,6-dimethylpiperazine-1-carboxylate], the pIC50 was 8.89.

Take `C[C@H]1CN(c2ncc(C(F)(F)F)cn2)CCN1C(=O)OCCc1c[nH]c(=O)c(C(F)(F)F)c1` [Example 108, 2-(6-Oxo-5-(trifluoromethyl)-1,6-dihydropyridin-3-yl)ethyl (S)-2-methyl-4-(5-(trifluoromethyl)pyrimidin-2-yl)piperazine-1-carboxylate]: the pIC50 was 9.20.

In the case of `O=C(Oc1cccc(-c2c[nH]c(=O)c(C(F)(F)F)c2)c1)N1CCN(c2ncc(C(F)(F)F)cn2)CC1` [Example 95, 3-(6-Oxo-5-(trifluoromethyl)-1,6-dihydropyridin-3-yl)phenyl 4-(5-(trifluoromethyl)pyrimidin-2-yl)piperazine-1-carboxylate], the pIC50 is 9.14.

In the case of `C[C@@H](Cc1c[nH]c(=O)c(C(F)(F)F)c1)OC(=O)N1CCN(c2ncc(S(C)(=O)=O)cn2)CC1` [Example 101, (S)-1-(6-Oxo-5-(trifluoromethyl)-1,6-dihydropyridin-3-yl)propan-2-yl 4-(5-(methylsulfonyl)pyrimidin-2-yl)piperazine-1-carboxylate], the pIC50 was 9.17.

Compound `C[C@@H](Cc1c[nH]c(=O)c(C(F)(F)F)c1)OC(=O)N1CCC(Nc2ncc(C(F)(F)F)cn2)CC1` [Example 72, (S)-1-(6-Oxo-5-(trifluoromethyl)-1,6-dihydropyridin-3-yl)propan-2-yl 4-((5-(trifluoromethyl)pyrimidin-2-yl)amino) piperidine-1-carboxylate] had a pIC50 of 8.30.

The compound `C[C@@H](Cc1c[nH]c(=O)c(C(F)(F)F)c1)OC(=O)N1CCN(C(=O)C2CC2)CC1` [Example 90, (S)-1-(6-Oxo-5-(trifluoromethyl)-1,6-dihydropyridin-3-yl)propan-2-yl 4-(cyclopropanecarbonyl)piperazine-1-carboxylate] showed a pIC50 of 8.97.

`CC(CC(=O)N1CCN(c2ncc(C(F)(F)F)cn2)CC1)c1c[nH]c(=O)c(C(F)(F)F)c1` (centres unmarked) [Example 38, 5-(4-Oxo-4-(4-(5-(trifluoromethyl)pyrimidin-2-yl)piperazin-1-yl)butan-2-yl)-3-(trifluoromethyl)pyridin-2(1H)-one] gave a pIC50 of 8.96.

`C[C@@H](Cc1c[nH]c(=O)c(C(F)(F)F)c1)OC(=O)N1CCN(c2ncc(C(F)(F)F)cn2)[C@@H](CO)C1` [Example 73, (S)-1-(6-Oxo-5-(trifluoromethyl)-1,6-dihydropyridin-3-yl)propan-2-yl (R)-3-(hydroxymethyl)-4-(5-(trifluoromethyl)pyrimidin-2-yl)piperazine-1-carboxylate]: the pIC50 is 9.12.

`Cc1cnc(N2[C@H](C)CN(C(=O)OCCc3c[nH]c(=O)c(C(F)(F)F)c3)C[C@@H]2C)nc1` [Example 165, 2-(6-Oxo-5-(trifluoromethyl)-1,6-dihydropyridin-3-yl)ethyl (3S,5R)-3,5-dimethyl-4-(5-methylpyrimidin-2-yl)piperazine-1-carboxylate]: the pIC50 is 9.00.

Take `C[C@@H](Cc1c[nH]c(=O)c(C(F)(F)F)c1)OC(=O)N1CCN(c2ccc(C(F)(F)F)cc2)CC1` [Example 97, (S)-1-(6-Oxo-5-(trifluoromethyl)-1,6-dihydropyridin-3-yl)propan-2-yl 4-(4-(trifluoromethyl)phenyl)piperazine-1-carboxylate]: the pIC50 is 9.07. This pIC50 and that of the compound before are within 0.2 log units of each other.

The compound `Cc1cnc(N2CCN(C(=O)O[C@@H](C)Cc3c[nH]c(=O)c(C(F)(F)F)c3)CC2)nc1` [Example 84, (S)-1-(6-Oxo-5-(trifluoromethyl)-1,6-dihydropyridin-3-yl)propan-2-yl 4-(5-methylpyrimidin-2-yl)piperazine-1-carboxylate] showed a pIC50 of 9.28.

Regarding `C[C@@H]1CN(c2ncc(C3CC3)cn2)[C@@H](C)CN1C(=O)OCCc1c[nH]c(=O)c(C(F)(F)F)c1` [Example 184, 2-(6-Oxo-5-(trifluoromethyl)-1,6-dihydropyridin-3-yl)ethyl (2R,5S)-4-(5-cyclopropylpyrimidin-2-yl)-2,5-dimethylpiperazine-1-carboxylate], the pIC50 was 8.92.

With `C[C@H]1CN(c2ncc(C(F)(F)F)cn2)C[C@H](C)N1C(=O)OCCc1c[nH]c(=O)c(C(F)(F)F)c1` [Example 145, 2-(6-Oxo-5-(trifluoromethyl)-1,6-dihydropyridin-3-yl)ethyl (2S,6S)-2,6-dimethyl-4-(5-(trifluoromethyl)pyrimidin-2-yl)piperazine-1-carboxylate], the pIC50 was 8.64.

In turn, `O=C(OCCc1c[nH]c(=O)c(C(F)(F)F)c1)N1C2CCC1CN(c1ncc(C(F)(F)F)cn1)C2` [Example 126, 2-(6-Oxo-5-(trifluoromethyl)-1,6-dihydropyridin-3-yl)ethyl 3-(5-(trifluoromethyl)pyrimidin-2-yl)-3,8-diazabicyclo[3.2.1]octane-8-carboxylate] gave a pIC50 of 9.00. This pIC50 lies 0.36 log units higher than the previous one.

With `Cc1cnc(N2C[C@@H](C)N(C(=O)OCCc3c[nH]c(=O)c(C(F)(F)F)c3)[C@@H](C)C2)nc1` [Example 163, 2-(6-Oxo-5-(trifluoromethyl)-1,6-dihydropyridin-3-yl)ethyl (2R,6S)-2,6-dimethyl-4-(5-methylpyrimidin-2-yl)piperazine-1-carboxylate], the negative-log IC50 (pIC50) is 9.12. This pIC50 and that of the compound before are within 0.2 log units of each other.

`Cc1ccc(OC(=O)N2CCN(c3ncc(C(F)(F)F)cn3)CC2)cc1-c1c[nH]c(=O)c(C(F)(F)F)c1` [Example 135, 4-Methyl-3-(6-oxo-5-(trifluoromethyl)-1,6-dihydropyridin-3-yl)phenyl 4-(5-(trifluoromethyl)pyrimidin-2-yl)piperazine-1-carboxylate] showed a pIC50 of 8.56.

Compound `C[C@@H](Cc1c[nH]c(=O)c(C(F)(F)F)c1)OC(=O)N1CCN(c2ncc(C(F)(F)F)cn2)[C@H](CO)C1` [Example 80, (S)-1-(6-Oxo-5-(trifluoromethyl)-1,6-dihydropyridin-3-yl)propan-2-yl (S)-3-(hydroxymethyl)-4-(5-(trifluoromethyl)pyrimidin-2-yl)piperazine-1-carboxylate] had a pIC50 of 8.82.
